Values of other authors as cited in patent US10993442B2, “Ultra-high loading glyphosate concentrate” (STEPAN COMPANY, priority 2008, dated 2021).
Where a name gives a salt, the structure may show the parent alone.

Conditions: for Solubility in water, glyphosate acid equivalent: as acid equivalent; for Solubility in water: as salt

Structure (SMILES) | Water solubility (free acid form) | Solubility in water, glyphosate acid equivalent | Solubility in water
O=C(O)CNCP(=O)(O)O [glyphosate, N-phosphonomethylglycine] | low | – | –
CC(C)N.O=C(O)CNCP(=O)(O)O [isopropylamine salt of glyphosate] | – | about 47 % by weight glyphosate acid equivalent (a.e.) | about 63 % by weight
O=C(O)CNCP(=O)(O)O [glyphosate potassium salt] | – | about 50 % by weight glyphosate acid equivalent (a.e.) | about 61 % by weight
